In US9309222B2, “Phenyl linked quinolinyl modulators of RORγt” (Janssen Pharmaceutica NV, priority 2012, dated 2016):
Where a name gives a salt, the structure may show the parent alone.

Tests used:
[1] = test system: IL-17 production by CD4 T cells; test: Human Th17 assay (IL-17 production by CD4 T cells under Th17 differentiation conditions); type: cell-based; conditions: IL-17 in supernatant after 3 days
Description: The human Th17 assay tests the effect of RORγt modulatory compounds on IL-17 production by CD4 T cells under conditions which favor Th17 differentiation. Total CD4^+ T cells were isolated from the peripheral blood mononuclear cells (PBMC) of healthy donors using a CD4^+ T cell isolation kit II, following the manufacturer's instructions (Miltenyi Biotec). […] 50 μL of compound at titrated concentrations in DMSO were added into each well at final DMSO concentration at 0.2%. Cells were incubated for 1 hour, then 50 μL of Th17 cell differentiation medium was added to each well. The final concentrations of antibodies and cytokines (R&D Systems) in differentiation medium were: 3×10^6/mL anti-CD3/CD28 beads (prepared using human T cell activation/expansion kit, Miltenyi Biotec), 10 μg/mL anti-IL4, 10 μg/mL anti-IFNγ, 10 ng/mL IL113, 10 ng/mL IL23, 50 ng/mL IL6, 3 ng/mL TGFβ and 20 U/mL IL2. Cells were cultured at 37° C. and 5% CO2 for 3 days. Supernatants were collected and the accumulated IL-17 in culture was measured by using MULTI-SPOT® Cytokine Plate following manufacture's instruction (Meso Scale Discovery). The plate was read using Sector Imager 6000, and IL-17 concentration was extrapolated from the standard curve. The IC50s were determined by GraphPad.

[2] = target: T1, human RORγt ligand binding domain (RORγt LBD) (Homo sapiens, UniProt P51449); test: RORγt ThermoFluor assay (thermal shift, ligand binding affinity); conditions: estimated from concentration response of thermal shift
T1 construct: His-tag (N); TurboTEV protease cleavage site (ENLYFQG) (N); made in house; host or cells: E. coli (pHIS1, modified pET vector)
T1 sequence (P51449 with tags, fused parts or gaps): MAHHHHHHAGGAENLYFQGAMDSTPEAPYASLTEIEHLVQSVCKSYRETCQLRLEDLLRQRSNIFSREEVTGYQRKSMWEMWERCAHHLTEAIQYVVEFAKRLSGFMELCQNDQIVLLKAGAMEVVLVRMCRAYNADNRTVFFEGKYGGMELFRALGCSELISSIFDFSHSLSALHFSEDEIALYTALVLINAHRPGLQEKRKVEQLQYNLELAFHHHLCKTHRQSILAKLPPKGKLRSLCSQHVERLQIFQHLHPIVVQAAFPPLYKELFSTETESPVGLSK
Method in brief: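 Thermal shift of 0.065 mg/mL RORγt with 60 μM 1,8-ANS in 100 mM Hepes pH 7.0, 10 mM NaCl, 2.5 mM GSH, 0.002% Tween-20. Compounds in 1:2 series from 10 mM DMSO stock. Dye fluorescence (500 nm emission) tracked versus temperature; ΔTm used to derive KD.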

human RORγt LBD = target: T2, human RORγt LBD (Homo sapiens, UniProt P51449); test: RORγt reporter assay (GAL4-RORγt LBD luciferase in HEK293T cells); type: cell-based; conditions: for IC50 / RORγt reporter Assay, % inhibition @ 6 μM: HEK293T cells; for IC50: 24 hours compound treatment; for inhibition at 6 µM: HEK-293T, read-out: RORγt reporter Assay, % inhibition @ 6 μM, HEK293T cells, 6 μM compound; for RORγt reporter Assay, % inhibition @ 6 μM: 6 μM compound
T2 construct: expressed in transfected cells
T2 sequence (P51449 258-518): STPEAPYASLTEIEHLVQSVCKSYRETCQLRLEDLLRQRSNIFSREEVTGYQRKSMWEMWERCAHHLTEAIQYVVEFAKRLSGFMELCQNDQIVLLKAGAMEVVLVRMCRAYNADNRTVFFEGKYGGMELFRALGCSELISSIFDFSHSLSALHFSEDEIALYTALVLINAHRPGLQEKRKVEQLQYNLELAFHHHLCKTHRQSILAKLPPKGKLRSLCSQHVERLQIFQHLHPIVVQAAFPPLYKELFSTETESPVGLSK
Method in brief: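 HEK293T cells transiently co-transfected with pBIND (GAL4 DBD fused to wild-type human RORγt LBD, plus SV40-driven renilla luciferase) and pGL4.31 GAL4-responsive firefly luciferase reporter. Plated in phenol-red-free DMEM with 5% lipid-reduced FCS and treated with compound for 24 h. Firefly/renilla luminescence ratio plotted against compound concentration.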

Row | Compound | IC50 ([1]; Homo sapiens, CD4+ T, 72 h) [nM] | Kd [2] [nM] | IC50 (human RORγt LBD) [nM] | inhibition at 6 µM (human RORγt LBD) [%] | IC50 [1] [nM] | RORγt reporter Assay, % inhibition @ 6 μM (human RORγt LBD) [%]
1 | Cc1cc(C(O)(c2ccnc(C(F)(F)F)c2)c2cncn2C)cc2c(Cl)c(-c3ccccc3)c(Cl)nc12 (stereo not shown) [Example 160, (2,4-Dichloro-8-methyl-3-phenylquinolin-6-yl)(1-methyl-1H-imidazol-5-yl)(2-(trifluoromethyl)pyridin-4-yl)methanol•TFA] | 690 | 6.1 | 120 | 97 |  | 
2 | Cc1ccc(C(O)(c2ccc3nc(Cl)c(-c4ccccc4)c(Cl)c3c2)c2cncn2C)c(C)n1 (stereo not shown) [Example 142, (2,4-Dichloro-3-phenylquinolin-6-yl)(2,6-dimethylpyridin-3-yl)(1-methyl-1H-imidazol-5-yl)methanol] | 140 | 7.6 | 92 | 105 |  | 
3 | CN(C)c1c(-c2ccccc2)c(Cl)nc2ccc(C(O)(c3cccnc3)c3cncn3C)cc12 (stereo not shown) [Example 35, [2-Chloro-4-(dimethylamino)-3-phenylquinolin-6-yl](1-methyl-1H-imidazol-5-yl)pyridin-3-ylmethanol•TFA] | 770 | 330 | 340 | 97 |  | 
4 | Cn1cncc1C(O)(c1ccc(Cl)nc1)c1ccc2nc(Cl)c(-c3ccccc3)c(Cl)c2c1 (stereo not shown) [Example 13] | 530 | 15 | 85 | 106 |  | 
5 | OC(c1ccc(Cl)cc1)(c1cccnc1)c1ccc2nc(-c3cncnc3)c(-c3ccccc3)c(Cl)c2c1 (stereo not shown) [Example 152, (4-Chloro-3-phenyl-2-(pyrimidin-5-yl)quinolin-6-yl)(4-chlorophenyl)(pyridin-3-yl)methanol] | 1200 | 770 | 350 | 97 |  | 
6 | Cn1cncc1C(O)(c1cncnc1)c1ccc2nc(Cl)c(-c3ccccc3)c(Cl)c2c1 (stereo not shown) [Example 120, (2,4-Dichloro-3-phenylquinolin-6-yl)(1-methyl-1H-imidazol-5-yl)(pyrimidin-5-yl)methanol] | 400 | 130 | 170 | 98 |  | 
7 | CC(=O)N1CCCC(C(O)(c2cccnc2)c2ccc3nc(Cl)c(-c4ccccc4)c(Cl)c3c2)C1 (stereo not shown) [Example 96, (1-Acetylpiperidin-3-yl)(2,4-dichloro-3-phenylquinolin-6-yl)pyridin-3-ylmethanol•TFA] | > 6000 | 29 | 370 | 98 |  | 

The next lines start with the values.

Row | IC50 ([1]; Homo sapiens, CD4+ T, 72 h) [nM] | Kd [2] [nM] | IC50 (human RORγt LBD) [nM] | inhibition at 6 µM (human RORγt LBD) [%] | IC50 [1] [nM] | RORγt reporter Assay, % inhibition @ 6 μM (human RORγt LBD) [%] | Compound
8 |  | 1300 | 360 |  | 2500 | 98 | COc1nc2c(C)cc(C(O)(c3ccc(C(F)(F)F)nc3)c3cncn3C)cc2c(Cl)c1-c1cccc(F)c1 (single isomer, unassigned) [Example 177c, (4-Chloro-3-(3-fluorophenyl)-2-methoxy-8-methylquinolin-6-yl)(1-methyl-1H-imidazol-5-yl)(6-(trifluoromethyl)pyridin-3-yl)methanol]
9 |  | 19 | 140 |  | 250 | 96 | Cn1cncc1C(O)(c1ccc(Cl)cc1)c1ccc2nc(Cl)c(-c3ccccc3Cl)c(Cl)c2c1 (single isomer, unassigned) [Example 153c, (4-Chlorophenyl)(2,4-dichloro-3-(2-chlorophenyl)quinolin-6-yl)(1-methyl-1H-imidazol-5-yl)methanol]
10 |  | 22 | 400 | 83 | 200 |  | COc1nc2c(C)cc(C(O)(c3ccc(C(F)(F)F)nc3)c3cncn3C)cc2c(Cl)c1-c1cccc(F)c1 (single isomer, unassigned) [Example 177b, (4-Chloro-3-(3-fluorophenyl)-2-methoxy-8-methylquinolin-6-yl)(1-methyl-1H-imidazol-5-yl)(6-(trifluoromethyl)pyridin-3-yl)methanol]
